Here are results for two compounds from US4656036A, “Antibiotics Tejeramycin and production thereof” (Merck & Co., Inc., priority 1985, dated 1987).

The test deals with Pseudomonas aeruginosa MB 2835. Briefly: In vivo activity against Pseudomonas aeruginosa MB 2835 systemic infections in mice (Table X). Details: species or system Pseudomonas aeruginosa; CD 1 female mice. As to conditions: for s.c./i.p. ED50 administration ratio: 10080 min; for ED50 i.p.: i.p. at 0 and 6 hours after infection; for ED50 i.p. / ED50 s.c.: multiplied by two doses, 7 days observation; for ED50 s.c.: s.c. at 0 and 6 hours after infection. Here is the method:
The in vivo activities of Tejeramycin, components A through G were determined against Pseudomonas aeruginosa MB 2835 infections in mice. Experimental systemic infections were produced in CD 1 female mice (Charles River Breeding Labs., Wilmington, Ma.), average body weight 19-22 grams, by the intraperitoneal (i.p.) injection of a suitably diluted overnight culture of Pseudomonas aeruginosa MB-2835 in brain heart infusion broth (Difco). The challenge dose varied from about 11-50 LD50 's LD50 =median lethal dose, the dose that should kill 50% of the infected, untreated mice). Under these conditions, the infected, untreated mice died within 48 hours.
The antibiotics were administered as aqueous solutions by intraperitoneal or subcutaneous (s.c.) injection at 0 and 6 hours after infection. At least four different dose levels of the antibiotics were used; each dose group consisted of five mice. […] Statist. Assoc. 42: 282-296, 1947.
From rich cuts 1-9e described in Tables III and IV, a series of seven samples were prepared for in vivo evaluation. Sample composition as well as in vivo results are summarized in Table X. Carbenicillin and gentamicin were included as controls.

With `CC1(C)S[C@@H]2[C@H](NC(=O)C(C(=O)O)c3ccccc3)C(=O)N2[C@H]1C(=O)O` (stereo partly drawn) [Carbenicillin], under “Example A”, the “s.c./i.p. ED50 administration ratio” value amounted to 3.2, the ED50 i.p. turned out to be 5.31 mg and the ED50 s.c. is 17.1 mg. For the same compound, where the note is “Example B”, the “s.c./i.p. ED50 administration ratio” value was determined as 1.5, the ED50 i.p. came to 4.14 mg and the ED50 s.c. is given as 6.04 mg.

For the compound Gentamicin, for the setting “Example A”, the “s.c./i.p. ED50 administration ratio” value was determined as 23, the ED50 i.p. is reported as 0.013 mg and the ED50 s.c. is reported as 0.30 mg. Besides, for the setting “Example B”, the “s.c./i.p. ED50 administration ratio” value was 20, the ED50 i.p. turned out to be 0.0063 mg and the ED50 s.c. is recorded as 0.125 mg.
